Assay [1] is described as follows: Inhibition of Escherichia coli UPPS-mediated undecaprenyl pyrophosphate synthesis by continuous spectrophotometric assay.
A further assay deals with Listeria monocytogenes. Description: Antibacterial activity against Listeria monocytogenes. Type of assay: functional.
Assay [2] addresses T1, 4,4'-diapophytoene synthase (Staphylococcus aureus, UniProt A9JQL9).
T1 sequence (A9JQL9 whole entry): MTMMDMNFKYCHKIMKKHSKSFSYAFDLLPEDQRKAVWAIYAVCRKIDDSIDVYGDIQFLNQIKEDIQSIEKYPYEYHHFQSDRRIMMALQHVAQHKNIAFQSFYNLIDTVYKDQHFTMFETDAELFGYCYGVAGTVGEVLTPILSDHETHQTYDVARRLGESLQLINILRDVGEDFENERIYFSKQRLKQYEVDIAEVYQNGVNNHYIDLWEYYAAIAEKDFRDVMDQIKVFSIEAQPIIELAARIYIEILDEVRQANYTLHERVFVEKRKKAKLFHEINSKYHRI
Nature of the assay: Inhibition of Staphylococcus aureus His6-tagged CrtM expressed in Escherichia coli BL21(DE3) using Farnesyl pyrophosphate as substrate incubated for 30 mins prior to substrate addition by continuous spectrophotometric assay.

A further assay concerns Bacillus anthracis. Nature of the assay: Antibacterial activity against Bacillus anthracis str. Sterne. It counts as functional.
Assay [3] can be described thus: Antibacterial activity against Streptococcus pyogenes M1. It counts as functional, Streptococcus pyogenes serotype M1.
A short description of assay [4]: Inhibition of Staphylococcus aureus UPPS-mediated undecaprenyl pyrophosphate synthesis by continuous spectrophotometric assay.
The subject of a further assay is Enterococcus faecium. Description: Antibacterial activity against Enterococcus faecium U503. It counts as functional.
Assay [5] relates to Escherichia coli. Description: Antibacterial activity against Escherichia coli K12. Type of assay: functional, organism-based. The following applies: K-12.
Assay [6] concerns Escherichia coli. Description: Antibacterial activity against Escherichia coli DH5alpha. Type of assay: functional, organism-based. The following applies: DH5[alpha].
In the next assay the test system is MCF7. Description: Cytotoxicity against human MCF7 cells. It counts as cell-based.
The target of assay [7] is T2, Farnesyl pyrophosphate synthase (Homo sapiens) (UniProt P14324).
T2 sequence (whole entry): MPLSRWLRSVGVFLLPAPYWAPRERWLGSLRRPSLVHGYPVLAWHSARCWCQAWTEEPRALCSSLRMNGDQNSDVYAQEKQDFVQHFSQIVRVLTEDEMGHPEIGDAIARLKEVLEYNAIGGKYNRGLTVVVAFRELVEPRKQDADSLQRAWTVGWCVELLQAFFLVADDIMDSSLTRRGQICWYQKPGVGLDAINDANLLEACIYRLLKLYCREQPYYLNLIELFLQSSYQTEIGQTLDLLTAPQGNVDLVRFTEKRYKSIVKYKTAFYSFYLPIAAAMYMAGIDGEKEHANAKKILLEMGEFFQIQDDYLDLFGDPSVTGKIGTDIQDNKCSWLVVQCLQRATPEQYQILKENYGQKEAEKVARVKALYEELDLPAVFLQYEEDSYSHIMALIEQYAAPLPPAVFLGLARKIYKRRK
Description: Inhibition of FPPS.

Assay [8] addresses T1, 4,4'-diapophytoene synthase. Nature of the assay: Inhibition of Staphylococcus aureus isolate WT CrtM-mediated staphyloxanthin synthesis after 72 hrs by spectrophotometry.
The next assay has as its system Staphylococcus aureus. Description: Antibacterial activity against methicillin-resistant Staphylococcus aureus USA300. Type of assay: functional.

From ChEMBL document CHEMBL2062486, “HIV-1 Integrase Inhibitor-Inspired Antibacterials Targeting Isoprenoid Biosynthesis” (ACS Med Chem Lett, 2012) come the findings set out here.

≈ marks a conversion by molar mass, not a printed value. Calls of active or inactive are those of the source. The rule behind the calls is not given here.

As to `CCCCCCCCCCOc1cccc(C(=O)/C=C(\O)C(=O)O)c1`, the IC50 (in general, the concentration that gives 50% inhibition) is 1900 nM in assay [1], 67000 nM in [2], 730 nM in assay [4] and 30000 nM in the assay on MCF7. In addition, the MIC90 (commonly an inhibitory concentration at the 90% level, which refers to growth in some studies and to a panel of isolates in others) against Listeria monocytogenes is 4 µg/mL (≈ 11.5 µM); against Bacillus anthracis, 0.5 µg/mL (≈ 1.43 µM); in assay [3], 1 µg/mL (≈ 2.87 µM); in the assay on Enterococcus faecium it was 4 µg/mL (≈ 11.5 µM). For the same molecule, the result in the assay on Escherichia coli [5] and in the assay with Escherichia coli [6] was inactive. The inhibition entry in assay [7] was “inactive”.
With `O=C(CP(=O)(O)O)NCCCc1cccc(Oc2ccccc2)c1`, in assay [7], the inhibition entry was “inactive”.
Turning to `O=C(/C=C(\O)C(=O)O)NCCCc1cccc(-c2ccccc2)c1`, the IC50 in [1] is 240 nM; in assay [2], 24000 nM; in assay [4], 1800 nM. Also, in assay [1], the Ki (in general, a dissociation constant, usually derived from enzyme kinetics or from competition with a known ligand) worked out at 120 nM. Besides, the inhibition result in [7] is “inactive”.
For `CCCCCCOc1cccc(CCCNC(=O)/C=C(\O)C(=O)O)c1`, the IC50 in assay [1] was 560 nM; in assay [2], more than 300000 nM; in assay [4], 750 nM. In assay [7], the inhibition entry was “inactive”.
On to `O=C(/C=C(\O)C(=O)O)NCCCc1cccc(Oc2ccccc2)c1`, for which the IC50 in assay [1] stood at 2200 nM; in [2], 24000 nM; in [8] it was 4000 nM. In addition, affinity in [2] was put at a Ki of 250 nM. Besides, the inhibition entry in assay [7] was “inactive”.
On to `O=P(O)(O)C(O)(Cc1cccc(-c2cccc3c2oc2ccccc23)c1)P(=O)(O)O`, for which the IC50 in assay [1] is 300 nM.
As to `CCCCCCOc1cccc(Cn2ccc(O)c(C(=O)O)c2=O)c1`, the half-inhibitory concentration (IC50) in assay [1] came out at 27000 nM; in assay [2] it was 45300 nM; in assay [8], 33000 nM. This molecule also returned a Ki in [2] of 450 nM. The inhibition entry in [7] was “inactive”.
For the molecule `CCCCCCCCCCOc1cccc(Cn2ccc(O)c(C(=O)O)c2=O)c1`, the IC50 in assay [1], in assay [2] and in [4] was more than 300000 nM each time. In addition, the inhibition result in assay [7] was “inactive”.
On to `CCCCCCCCOc1ccc(C(=O)/C=C(\O)C(=O)O)cc1`, for which the IC50 in [1] is 500 nM; in assay [2], more than 300000 nM; in [4], 2000 nM; in the assay on MCF7, 30000 nM. Further, the MIC90 was found to be 4 µg/mL (≈ 12.5 µM) against Listeria monocytogenes; 0.5 µg/mL (≈ 1.56 µM) in the assay with Bacillus anthracis; 1 µg/mL (≈ 3.12 µM) in [3]; 4 µg/mL (≈ 12.5 µM) with Enterococcus faecium; 0.25 µg/mL (≈ 0.78 µM) in the assay with Staphylococcus aureus. The result in the assay with Escherichia coli [5] and with Escherichia coli [6] was inactive. In addition, in assay [7], the inhibition result was “inactive”.
